In ChEMBL document CHEMBL4507268 (2021):

Experiments:
Conditions in all cases: Compound concentration 1000.0 nM
[1] = molecular target: Mitogen-activated protein kinase kinase kinase 11 (Homo sapiens) (UniProt Q16584)
[2] = tested on: Receptor-type tyrosine-protein kinase FLT3 (Homo sapiens), P36888 [UNDEFINED MUTATION]
[3] = molecular target: Mitogen-activated protein kinase kinase kinase kinase 1 (Homo sapiens) (UniProt Q92918)
[4] = tested on: Phosphatidylinositol 4,5-bisphosphate 3-kinase catalytic subunit alpha isoform (Homo sapiens), P42336 [M1043I]
[5] = molecular target: Serine/threonine-protein kinase DCLK1 (Homo sapiens) (UniProt O15075)
[6] = molecular target: Macrophage-stimulating protein receptor (Homo sapiens) (UniProt Q04912)
[7] = molecular target: T1, Ephrin type-A receptor 3 (Homo sapiens) (UniProt P29320)
T1 sequence (whole entry): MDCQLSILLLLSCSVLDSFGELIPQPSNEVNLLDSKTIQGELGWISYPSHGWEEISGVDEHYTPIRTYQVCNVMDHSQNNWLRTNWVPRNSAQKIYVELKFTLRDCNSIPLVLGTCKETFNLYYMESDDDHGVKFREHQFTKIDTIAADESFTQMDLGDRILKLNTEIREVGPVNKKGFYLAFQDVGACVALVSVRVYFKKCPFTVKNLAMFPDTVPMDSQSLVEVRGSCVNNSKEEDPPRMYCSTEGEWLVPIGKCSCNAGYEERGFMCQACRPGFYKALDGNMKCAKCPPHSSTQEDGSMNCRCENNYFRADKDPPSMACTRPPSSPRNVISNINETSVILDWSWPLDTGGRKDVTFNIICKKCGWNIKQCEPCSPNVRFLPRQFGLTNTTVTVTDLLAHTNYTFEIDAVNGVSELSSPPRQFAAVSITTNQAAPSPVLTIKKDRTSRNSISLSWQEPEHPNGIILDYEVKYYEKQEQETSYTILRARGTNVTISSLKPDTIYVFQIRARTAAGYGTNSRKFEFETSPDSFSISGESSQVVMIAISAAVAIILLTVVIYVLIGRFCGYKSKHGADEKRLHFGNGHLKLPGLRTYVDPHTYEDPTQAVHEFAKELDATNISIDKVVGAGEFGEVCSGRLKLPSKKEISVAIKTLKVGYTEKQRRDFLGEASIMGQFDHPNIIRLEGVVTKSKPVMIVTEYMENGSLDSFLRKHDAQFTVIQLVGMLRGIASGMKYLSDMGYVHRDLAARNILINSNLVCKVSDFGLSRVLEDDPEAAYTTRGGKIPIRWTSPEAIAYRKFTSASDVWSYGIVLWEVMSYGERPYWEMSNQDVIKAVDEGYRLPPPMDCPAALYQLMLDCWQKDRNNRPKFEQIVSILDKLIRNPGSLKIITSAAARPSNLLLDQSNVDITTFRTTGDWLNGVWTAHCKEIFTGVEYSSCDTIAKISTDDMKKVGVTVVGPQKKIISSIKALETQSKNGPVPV

[8] = molecular target: Serine/threonine-protein kinase PAK 3 (Homo sapiens) (UniProt O75914)
[9] = molecular target: T2, Serine/threonine-protein kinase haspin (Homo sapiens) (UniProt Q8TF76)
T2 sequence (whole entry): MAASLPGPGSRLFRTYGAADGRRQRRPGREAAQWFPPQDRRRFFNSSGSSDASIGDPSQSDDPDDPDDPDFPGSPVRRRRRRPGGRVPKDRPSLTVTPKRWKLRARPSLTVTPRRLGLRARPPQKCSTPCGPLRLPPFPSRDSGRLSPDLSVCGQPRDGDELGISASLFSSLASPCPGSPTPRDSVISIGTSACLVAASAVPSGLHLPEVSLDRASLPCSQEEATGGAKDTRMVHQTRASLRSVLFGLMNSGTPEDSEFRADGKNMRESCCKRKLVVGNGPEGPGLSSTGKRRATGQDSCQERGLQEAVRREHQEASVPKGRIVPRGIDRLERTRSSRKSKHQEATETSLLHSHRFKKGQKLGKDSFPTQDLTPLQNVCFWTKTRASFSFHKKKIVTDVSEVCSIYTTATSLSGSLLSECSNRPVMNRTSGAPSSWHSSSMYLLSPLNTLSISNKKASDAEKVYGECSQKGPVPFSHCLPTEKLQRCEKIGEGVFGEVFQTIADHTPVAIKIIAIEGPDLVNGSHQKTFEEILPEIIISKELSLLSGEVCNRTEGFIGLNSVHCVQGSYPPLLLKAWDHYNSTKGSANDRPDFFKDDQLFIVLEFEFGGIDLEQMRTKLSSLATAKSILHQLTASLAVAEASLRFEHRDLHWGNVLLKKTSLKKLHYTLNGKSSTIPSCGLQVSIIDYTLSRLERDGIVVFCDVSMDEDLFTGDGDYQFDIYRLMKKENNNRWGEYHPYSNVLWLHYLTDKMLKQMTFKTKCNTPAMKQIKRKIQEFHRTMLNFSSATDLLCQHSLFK

[10] = molecular target: Mitogen-activated protein kinase kinase kinase 10 (Homo sapiens) (UniProt Q02779)
[11] = molecular target: T3, G protein-coupled receptor kinase 3 (Homo sapiens) (UniProt P35626)
T3 sequence (whole entry): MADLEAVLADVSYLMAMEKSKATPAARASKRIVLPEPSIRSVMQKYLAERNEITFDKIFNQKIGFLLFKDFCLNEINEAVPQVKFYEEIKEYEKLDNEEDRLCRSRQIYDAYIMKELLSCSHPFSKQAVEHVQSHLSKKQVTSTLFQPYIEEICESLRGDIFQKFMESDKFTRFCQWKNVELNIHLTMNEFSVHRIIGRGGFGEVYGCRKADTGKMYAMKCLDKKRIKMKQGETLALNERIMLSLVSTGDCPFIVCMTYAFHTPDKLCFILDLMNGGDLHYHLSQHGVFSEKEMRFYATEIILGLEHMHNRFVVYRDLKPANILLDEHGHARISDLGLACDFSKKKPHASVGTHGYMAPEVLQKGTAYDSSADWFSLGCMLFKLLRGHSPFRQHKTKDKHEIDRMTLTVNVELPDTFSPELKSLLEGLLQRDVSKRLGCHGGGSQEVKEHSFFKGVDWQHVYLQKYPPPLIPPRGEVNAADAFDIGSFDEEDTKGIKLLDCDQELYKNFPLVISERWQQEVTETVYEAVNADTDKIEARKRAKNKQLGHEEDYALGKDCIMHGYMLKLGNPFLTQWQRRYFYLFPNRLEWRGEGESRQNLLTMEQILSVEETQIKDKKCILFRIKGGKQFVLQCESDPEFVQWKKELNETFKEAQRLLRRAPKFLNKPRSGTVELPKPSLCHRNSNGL

Measured: residual activity

Chain of Phosphatidylinositol 4,5-bisphosphate 3-kinase catalytic subunit alpha isoform (Homo sapiens), P42336 [M1043I] (P42336 whole entry M1043I, canonical isoform): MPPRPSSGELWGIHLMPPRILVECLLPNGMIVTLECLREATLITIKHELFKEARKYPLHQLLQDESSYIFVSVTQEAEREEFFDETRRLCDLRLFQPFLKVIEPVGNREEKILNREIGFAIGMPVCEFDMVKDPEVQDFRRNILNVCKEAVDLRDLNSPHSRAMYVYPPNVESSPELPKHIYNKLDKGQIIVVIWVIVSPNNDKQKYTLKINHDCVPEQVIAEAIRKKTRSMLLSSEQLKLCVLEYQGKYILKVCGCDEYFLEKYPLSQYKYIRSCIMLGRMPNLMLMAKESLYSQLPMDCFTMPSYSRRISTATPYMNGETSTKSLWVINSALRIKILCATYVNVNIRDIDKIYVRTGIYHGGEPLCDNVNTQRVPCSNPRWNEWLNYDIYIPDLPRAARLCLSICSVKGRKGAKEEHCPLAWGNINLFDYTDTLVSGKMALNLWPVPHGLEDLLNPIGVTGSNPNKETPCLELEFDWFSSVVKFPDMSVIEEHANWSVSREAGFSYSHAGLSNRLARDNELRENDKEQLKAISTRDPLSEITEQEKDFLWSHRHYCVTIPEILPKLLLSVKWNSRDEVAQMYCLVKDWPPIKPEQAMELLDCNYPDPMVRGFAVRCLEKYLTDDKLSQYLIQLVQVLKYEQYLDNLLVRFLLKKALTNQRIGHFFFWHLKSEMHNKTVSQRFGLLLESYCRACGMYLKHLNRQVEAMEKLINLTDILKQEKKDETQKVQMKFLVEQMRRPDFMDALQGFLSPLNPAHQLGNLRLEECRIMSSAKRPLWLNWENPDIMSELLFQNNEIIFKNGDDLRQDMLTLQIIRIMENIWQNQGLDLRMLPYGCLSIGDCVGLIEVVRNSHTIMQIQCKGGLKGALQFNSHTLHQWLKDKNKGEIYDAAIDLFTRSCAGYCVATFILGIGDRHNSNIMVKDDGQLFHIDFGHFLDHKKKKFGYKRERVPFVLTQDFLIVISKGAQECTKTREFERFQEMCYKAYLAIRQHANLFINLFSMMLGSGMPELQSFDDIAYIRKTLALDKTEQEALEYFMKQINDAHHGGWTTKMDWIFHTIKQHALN
Chain of Serine/threonine-protein kinase DCLK1 (Homo sapiens) (O15075 whole entry): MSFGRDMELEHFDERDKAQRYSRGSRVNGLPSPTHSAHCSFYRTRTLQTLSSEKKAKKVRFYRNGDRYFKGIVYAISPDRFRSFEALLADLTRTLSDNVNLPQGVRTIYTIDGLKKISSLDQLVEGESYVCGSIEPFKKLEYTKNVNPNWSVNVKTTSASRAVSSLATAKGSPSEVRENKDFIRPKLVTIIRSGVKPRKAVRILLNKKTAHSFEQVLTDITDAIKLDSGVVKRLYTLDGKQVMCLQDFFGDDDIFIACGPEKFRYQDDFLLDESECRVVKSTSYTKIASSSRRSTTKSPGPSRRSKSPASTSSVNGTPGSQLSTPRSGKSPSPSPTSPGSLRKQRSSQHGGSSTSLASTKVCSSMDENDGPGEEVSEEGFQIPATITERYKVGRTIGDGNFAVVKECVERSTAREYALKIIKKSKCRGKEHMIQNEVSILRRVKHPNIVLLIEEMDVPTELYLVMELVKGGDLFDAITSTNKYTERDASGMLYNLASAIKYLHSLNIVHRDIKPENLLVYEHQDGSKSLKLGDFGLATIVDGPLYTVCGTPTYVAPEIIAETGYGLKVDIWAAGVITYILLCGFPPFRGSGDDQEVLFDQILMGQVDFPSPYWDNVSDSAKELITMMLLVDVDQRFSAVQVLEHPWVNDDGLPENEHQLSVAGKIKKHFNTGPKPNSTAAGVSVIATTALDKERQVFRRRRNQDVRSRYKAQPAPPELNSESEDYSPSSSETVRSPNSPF
Chain of Mitogen-activated protein kinase kinase kinase kinase 1 (Homo sapiens) (Q92918 whole entry, looked up, canonical isoform): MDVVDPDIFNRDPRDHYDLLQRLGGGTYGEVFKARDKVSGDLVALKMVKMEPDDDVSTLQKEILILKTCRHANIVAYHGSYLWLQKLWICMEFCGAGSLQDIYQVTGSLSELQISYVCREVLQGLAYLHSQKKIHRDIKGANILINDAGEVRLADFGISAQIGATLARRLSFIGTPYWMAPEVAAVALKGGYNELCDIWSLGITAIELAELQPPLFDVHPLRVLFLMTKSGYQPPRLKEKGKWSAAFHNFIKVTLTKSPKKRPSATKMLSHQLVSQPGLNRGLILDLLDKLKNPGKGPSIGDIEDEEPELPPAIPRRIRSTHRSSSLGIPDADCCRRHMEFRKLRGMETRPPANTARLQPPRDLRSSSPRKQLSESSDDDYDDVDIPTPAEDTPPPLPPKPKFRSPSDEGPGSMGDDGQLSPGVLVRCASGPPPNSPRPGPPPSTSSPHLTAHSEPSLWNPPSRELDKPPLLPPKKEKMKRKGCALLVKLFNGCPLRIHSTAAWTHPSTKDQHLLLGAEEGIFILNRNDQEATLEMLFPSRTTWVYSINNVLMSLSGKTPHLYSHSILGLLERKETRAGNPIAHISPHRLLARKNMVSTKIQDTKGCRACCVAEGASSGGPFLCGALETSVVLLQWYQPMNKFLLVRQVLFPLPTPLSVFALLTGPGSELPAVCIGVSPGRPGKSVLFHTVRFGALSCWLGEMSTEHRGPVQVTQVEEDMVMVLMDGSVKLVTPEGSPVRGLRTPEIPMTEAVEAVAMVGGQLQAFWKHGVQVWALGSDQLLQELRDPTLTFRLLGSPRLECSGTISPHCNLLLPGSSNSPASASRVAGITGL
Chain of Mitogen-activated protein kinase kinase kinase 11 (Homo sapiens) (Q16584 whole entry, looked up): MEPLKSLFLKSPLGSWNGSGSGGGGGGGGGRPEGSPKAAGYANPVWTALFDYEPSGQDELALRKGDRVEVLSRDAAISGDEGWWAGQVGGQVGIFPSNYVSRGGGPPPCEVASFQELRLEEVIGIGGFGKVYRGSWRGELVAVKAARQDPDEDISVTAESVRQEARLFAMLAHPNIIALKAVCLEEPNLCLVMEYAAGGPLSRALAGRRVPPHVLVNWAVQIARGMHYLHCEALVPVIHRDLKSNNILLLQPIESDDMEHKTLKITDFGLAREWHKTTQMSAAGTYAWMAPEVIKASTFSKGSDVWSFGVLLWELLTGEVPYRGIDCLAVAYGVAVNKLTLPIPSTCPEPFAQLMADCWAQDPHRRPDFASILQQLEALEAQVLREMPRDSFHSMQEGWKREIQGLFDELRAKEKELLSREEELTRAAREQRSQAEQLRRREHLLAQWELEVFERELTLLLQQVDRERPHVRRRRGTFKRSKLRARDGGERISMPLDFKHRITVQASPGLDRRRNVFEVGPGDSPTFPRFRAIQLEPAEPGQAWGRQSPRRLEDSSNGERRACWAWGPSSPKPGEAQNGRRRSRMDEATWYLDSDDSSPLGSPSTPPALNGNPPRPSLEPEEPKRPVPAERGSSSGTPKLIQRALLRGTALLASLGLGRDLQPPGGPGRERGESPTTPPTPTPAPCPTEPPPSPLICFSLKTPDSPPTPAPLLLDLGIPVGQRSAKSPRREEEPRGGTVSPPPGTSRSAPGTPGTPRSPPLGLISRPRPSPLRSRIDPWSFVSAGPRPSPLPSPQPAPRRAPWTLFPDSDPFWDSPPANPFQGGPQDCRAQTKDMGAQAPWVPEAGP
Chain of Serine/threonine-protein kinase PAK 3 (Homo sapiens) (O75914 whole entry, looked up): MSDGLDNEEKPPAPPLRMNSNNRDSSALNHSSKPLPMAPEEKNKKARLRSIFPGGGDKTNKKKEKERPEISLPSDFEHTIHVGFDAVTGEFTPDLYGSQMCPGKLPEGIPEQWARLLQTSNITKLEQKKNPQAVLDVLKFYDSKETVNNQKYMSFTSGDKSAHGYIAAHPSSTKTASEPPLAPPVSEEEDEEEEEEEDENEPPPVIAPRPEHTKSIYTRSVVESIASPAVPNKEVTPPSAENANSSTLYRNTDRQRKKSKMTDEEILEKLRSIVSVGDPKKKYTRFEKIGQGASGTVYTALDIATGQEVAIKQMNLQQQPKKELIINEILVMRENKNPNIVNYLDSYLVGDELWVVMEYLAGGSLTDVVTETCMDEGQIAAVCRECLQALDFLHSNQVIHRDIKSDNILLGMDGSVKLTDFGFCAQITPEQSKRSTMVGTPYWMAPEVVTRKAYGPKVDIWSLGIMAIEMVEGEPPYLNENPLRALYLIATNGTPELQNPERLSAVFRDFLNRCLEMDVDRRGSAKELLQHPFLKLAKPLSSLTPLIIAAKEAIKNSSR
Chain of Mitogen-activated protein kinase kinase kinase 10 (Homo sapiens) (Q02779 whole entry, looked up): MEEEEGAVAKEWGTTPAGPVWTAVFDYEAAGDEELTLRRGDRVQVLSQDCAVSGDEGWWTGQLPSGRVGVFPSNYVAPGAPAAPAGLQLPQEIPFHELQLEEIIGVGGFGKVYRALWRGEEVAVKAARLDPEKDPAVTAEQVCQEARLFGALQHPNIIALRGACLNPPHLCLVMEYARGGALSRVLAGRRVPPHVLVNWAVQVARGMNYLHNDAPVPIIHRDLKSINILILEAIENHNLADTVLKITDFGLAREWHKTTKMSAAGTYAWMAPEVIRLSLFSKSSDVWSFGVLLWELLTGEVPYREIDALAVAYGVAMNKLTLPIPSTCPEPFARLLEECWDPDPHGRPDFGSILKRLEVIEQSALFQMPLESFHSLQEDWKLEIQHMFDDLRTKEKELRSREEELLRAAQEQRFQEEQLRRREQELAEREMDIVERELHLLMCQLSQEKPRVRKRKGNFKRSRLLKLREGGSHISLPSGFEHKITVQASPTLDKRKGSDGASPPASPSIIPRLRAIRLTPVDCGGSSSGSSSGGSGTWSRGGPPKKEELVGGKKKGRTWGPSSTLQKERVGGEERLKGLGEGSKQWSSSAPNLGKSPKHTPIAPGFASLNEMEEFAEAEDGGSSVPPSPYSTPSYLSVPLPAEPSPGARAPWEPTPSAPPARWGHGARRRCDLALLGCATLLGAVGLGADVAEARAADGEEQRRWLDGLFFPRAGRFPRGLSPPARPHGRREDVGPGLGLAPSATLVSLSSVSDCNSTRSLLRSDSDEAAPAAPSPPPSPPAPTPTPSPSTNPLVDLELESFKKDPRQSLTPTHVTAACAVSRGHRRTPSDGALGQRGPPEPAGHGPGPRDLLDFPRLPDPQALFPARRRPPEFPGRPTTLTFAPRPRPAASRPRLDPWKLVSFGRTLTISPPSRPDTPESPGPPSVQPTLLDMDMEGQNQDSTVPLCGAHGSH

Cc1nc(C2CCN(C(=O)c3ccc(OC(F)(F)F)cc3N)CC2)c2ncc(N3CCN(C)CC3)cc2n1 [BAY-693]
inactive: [1] 100% | [2] 100% | [3] 96% | [4] 96% | [5] 85% | [6] 82% | [7] 92% | [8] 100% | [9] 100% | [10] 100% | [11] 93%

CN1CCN(c2cnc3c(C4CCN(C(=O)c5ccc(OC(F)(F)F)cc5N)CC4)ncnc3c2)CC1 [BAY-885]
inactive: [1] 100% | [2] 88% | [3] 88% | [4] 100% | [5] 85% | [6] 90% | [7] 100% | [8] 88% | [9] 100% | [10] 100% | [11] 89%
